Test results taken from patent US4112218A, “Method of preparing sterol glycosides from plants” (Nippon Shinyaku Co., Ltd., priority 1976, dated 1978).
Where two headings read alike, the source gives them in different places.

Key:
[1] = tested on: bleeding from the amputated tail end; assay: hemostatic effect, Motohashi et al. model: time until bleeding from amputated mouse tail tip in water is completely stopped; assay type: in vivo; details: mice, tail tip amputation
pulmonary hemorrhage = pulmonary hemorrhage in mice under reduced pressure (scoring method; vascular stabilizing effect); assay type: in vivo; details: Mus musculus, reduced pressure of 50 ± 0.5 mm Hg/15 sec

CN1C2=CC(=O)C(=NNC(N)=O)C=C2CC1S(=O)(=O)O (stereo not drawn) [Carbazochrome sodium sulfonate]
ED50 ([1]; ip, read-out: ED50 i.p. (hemostatic effect)): 5.4 mg/kg
ED50 ([1]; iv, read-out: ED50 i.v. (hemostatic effect)): 3.6 mg/kg
ED50 ([1]; po, read-out: ED50 p.o. (hemostatic effect)): 36 mg/kg
ED50 (pulmonary hemorrhage; ip, read-out: ED50 i.p. (pulmonary hemorrhage)): 112 mg/kg
ED50 (pulmonary hemorrhage; iv, read-out: ED50 i.v. (pulmonary hemorrhage)): 80 mg/kg
ED50 (pulmonary hemorrhage; po, read-out: ED50 p.o. (pulmonary hemorrhage)): 400 mg/kg
